# Experimental data reported in patent US9695119B2, “Methionine analogs and methods of using same” (Bioxiness Pharmaceuticals, Inc., priority 2008, dated 2017).
# Like-named read-outs stand apart in the source and are kept apart here.
# Legend:
# [1] = system: S. epidermids; test: Broad spectrum bacterial growth inhibition, 96-well plate, M9 media; format: cell-based
# Description: Table 2 and FIG. 2 summarizes a series of studies, which were performed to test eradication of bacterial growth using various species (representative strains of gram positive and gram negative microorganisms commonly associated with wound infection). A 96-well plate format was used to culture different bacteria in M9 minimal media supplemented with glucose (M9) or same media supplemented with a range of concentrations of various analogues (Methionine, I-AA and I-AB). Experiments were carried out in duplicate.
# [2] = system: L929 cells; settings: mouse, 60 min
# Description: Cytotoxicity is assessed by a colorimetric assay system (Sagripanti J-L, Bonifacino A. Cytotoxicity of Liquid Disinfectants. Surgical Infections, 2000; 1(1): 3-14, the content of which is hereby incorporated by reference, particularly with respect to the experimental methods described therein), using 3′-(phenylamino-carbonyl)-3,4-tetrazo-lium-bis(4-methoxy-6-nitro) benzene sulfonic acid hydrate (XTT), ProCheck™ cell viability assay (Evaluation of a soluble tetrazolium/formazan assay for cell growth and drug sensitivity in culture using human and other tumor cell lines described by Scudiero D A, Shoemaker R A H, Paul K D, Monks A, Tierney S, Nofziger T H, Currens M J, Seniff D, Boyd M R. Cancer Res. 1988 Sep. 1; 48(17):4827-33, the content of which is hereby incorporated by reference, particularly with respect to the experimental methods described therein). Similar approaches for determining the cell viability are used by other investigators. Three cell types are used: […] (L929), primary human skin fibroblast and primary human keratinocyte cells cultured in Dulbecco Modified Eagle's Medium and Keratinocyte defined medium with corresponding growth factors plus antibiotics. Cells are trypsinized and counted under the microscope and seeded at 1000-to-2000 cells per well of a flat-bottom 96-well plate. Cells are allowed to grow overnight at 37° C. Tissue culture media is removed the following day and cells are rinsed with fresh media 1× and then left in 50 μL of tissue culture media. Test articles are prepared as 2-fold dilutions and 200 μL is added into each set of 4-wells (total volume per well is 250 μL). Cells are exposed to test articles for 60 min at room temperature. Immediately after the exposed time, test article from each well is removed and cells are fed with 250 μL of fresh media. Plates are incubated at 37° C. for 18-20 hr. The following day media is removed again and replaced with 100 μL/well of fresh media containing 10/100 μL XTT-reagent. Cells are incubated under growth conditions (5% CO2 at 37° C. humidified incubator), protected from light, until color development is achieved. Absorbance is read at 450 nm with reference wavelength at 750 nm using Molecular Device ThermoMax Plate reader, blanking the plate on the medium-only assay blank wells. Untreated cells receiving XTT reagents-only serve as positive cell proliferation control.
# Results are expressed as percentage of cells surviving the treatment as compared to PBS.
structure (smiles),measurement,setting,value
"CSCC[C@H](NC(=O)CN)C(=O)NO.Cl [I-AB, (S)-2-(2-aminoacetamido)-N-hydroxy-4-(methylthio)butanamide hydrochloride]","Broad Spectrum Bacterial Growth Inhibition Data, S. epidermids","[1]; Conc. 0.0, well 4, M9 media",0.7
same,"Broad Spectrum Bacterial Growth Inhibition Data, S. epidermids","[1]; Conc. 0.1, well 5, M9 media",0.7
same,"Broad Spectrum Bacterial Growth Inhibition Data, S. epidermids","[1]; Conc. 0.2, well 6, M9 media",0.6
same,"Broad Spectrum Bacterial Growth Inhibition Data, S. epidermids","[1]; Conc. 0.4, well 7, M9 media",0.3
same,"Broad Spectrum Bacterial Growth Inhibition Data, S. epidermids","[1]; Conc. 0.8, well 8, M9 media",0.2
same,"Broad Spectrum Bacterial Growth Inhibition Data, S. epidermids","[1]; Conc. 1.6, well 9, M9 media",0.2
same,"Broad Spectrum Bacterial Growth Inhibition Data, S. epidermids","[1]; Conc. 3.1, well 10, M9 media",0.1
same,"Broad Spectrum Bacterial Growth Inhibition Data, S. epidermids","[1]; Conc. 6.3, well 11, M9 media",0.1
same,"Broad Spectrum Bacterial Growth Inhibition Data, S. epidermids","[1]; Conc. 12.5, well 12, M9 media",0.1
same,Percentage of Surviving L929 cells relative to control,[2]; 0.1 mM,99%
same,Percentage of Surviving L929 cells relative to control,[2]; 0.2 mM,92%
same,Percentage of Surviving L929 cells relative to control,[2]; 0.39 mM,88%
same,Percentage of Surviving L929 cells relative to control,[2]; 0.78 mM,90%
same,Percentage of Surviving L929 cells relative to control,[2]; 1.56 mM,89%
same,Percentage of Surviving L929 cells relative to control,[2]; 3.13 mM,86%
same,Percentage of Surviving L929 cells relative to control,[2]; 6.25 mM,88%
same,Percentage of Surviving L929 cells relative to control,[2]; 12.5 mM,89%
same,Percentage of Surviving L929 cells relative to control,[2]; 25 mM,92%
same,Percentage of Surviving L929 cells relative to control,[2]; 50 mM,75%
